According to patent US8546608B2, “Proteasome inhibitors and methods of using the same” (Cephalon, Inc., priority 2003, dated 2013):

Key:
[1] = target: T1, 20S Human Erythrocyte Proteasome (HEP) (Homo sapiens, UniProt P20618+P28074); assay: Chymotrypsin-like activity of 20S Human Erythrocyte Proteasome (HEP), IC50 determination; type: biochemical; details: assay of Example C, inhibition of HEP
T1 construct: 20S Human Erythrocyte Proteasome (HEP), purchased from Immatics Biotechnologies Inc; purchased Immatics Biotechnologies Inc., Tübingen, Germany; host or cells: human erythrocytes (natural source)
Description: Assay for Chymotrypsin-like Activity of 20S Human Erythrocyte Proteasome (HEP)
Proteasome chymotrypsin-like activity of compounds of the invention was assayed according to the following procedure.
In 96-well microtiter plates, 20S Human Erythrocyte Proteasome (HEP), purchased from Immatics Biotechnologies Inc., Tübingen, Germany was plated at 0.2 μg/mL (about 0.6 nM catalytic sites) in 0.04% SDS 20 mM Tris buffer. A fluorimetric substrate Suc-LLVY-AMC (succinyl-Leu-Leu-Val-Tyr-7-amido-4-methylcoumarin), purchased from Sigma Inc., St. Louis, Mo., USA was added to a final concentration of 100 μM from a stock solution of 10 mM in dimethylsulfoxide. Reaction volumes were 100 μl per well. […] Proteasome activity was determined under conditions in which substrate hydrolysis increased linearly with time and the change in fluorescence signal was proportional to the concentration of free AMC.
Determination of IC50 Values for HEP and α-Chymotrypsin Inhibitors
(§1) Inhibition of the chymotrypsin-like activity of HEP and of bovine α-chymotrypsin was determined by incubating the enzyme with various concentrations of putative inhibitors for 15 minutes at 37° C. (or room temperature for α-chymotrypsin) prior to the addition of substrate. Each experimental condition was evaluated in triplicate, and replicate experiments were performed for the inhibitors described herein.

[2] = target: T2, proteasome in Molt-4 cells (human leukemia) (Homo sapiens, UniProt P20618+P28074); type: cell-based; details: assay of Example E, inhibition of MOLT4; read-out: MOLT4 (EC50)
T2 sequence (P28074 60-263): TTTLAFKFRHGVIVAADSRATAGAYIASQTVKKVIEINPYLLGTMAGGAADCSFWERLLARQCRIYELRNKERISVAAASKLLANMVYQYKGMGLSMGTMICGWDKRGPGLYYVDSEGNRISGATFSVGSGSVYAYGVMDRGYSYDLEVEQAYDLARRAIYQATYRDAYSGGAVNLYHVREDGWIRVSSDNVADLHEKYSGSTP
T2 sequence (P20618 29-241): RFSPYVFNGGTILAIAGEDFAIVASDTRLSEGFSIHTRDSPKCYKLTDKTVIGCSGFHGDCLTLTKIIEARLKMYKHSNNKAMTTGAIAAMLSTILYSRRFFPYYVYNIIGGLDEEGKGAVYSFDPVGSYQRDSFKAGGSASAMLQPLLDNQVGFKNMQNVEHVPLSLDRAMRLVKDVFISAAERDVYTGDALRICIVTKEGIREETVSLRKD
Description: Cellular Assay for Chymotrypsin-like activity of Proteasome in Molt-4 Cell Line
The chymotrypsin-like activity of proteasome in Molt-4 cells (human leukemia) was assayed according to the following procedure. A brief description of the method was published previously (Harding et al., J. Immunol., 1995, 155, 1767).
Molt-4 cells were washed and resuspended in HEPES-buffered Saline (5.4 mM KCl, 120 mM NaCl, 25 mM Glucose, 1.5 mM MgSO4, 1 mM Na pyruvate, 20 mM Hepes) and plated in 96-well microtiter white plates to a final concentration of 6×10^6 cells/mL. Then various 5× proteasome inhibitor concentrations (or diluted DMSO for controls), prepared from 250×DMSO solutions by diluting 50-fold using HEPES-buffered saline, were added to the plate to a final 1× concentration. After 15 minutes incubation at 37° C., a fluorimetric cell permeable substrate (MeOSuc-FLF-AFC) (methoxysuccinyl-Phe-Leu-Phe-7-amido-4-trifluoromethylcoumarin) purchased from Enzyme Systems Products, catalogue number AFC-88, was added to each well at a final concentration of 25 μM from a stock solution of 20 mM in DMSO. Reaction volumes were 100 μl per well.
The concentration of free AFC was monitored every 1.5 min for 30 min ([…]) on a Polastar Optima, BMG Labtechnologies microplate reader, using an excitation wavelength of 390 nm and emission wavelength of 520 nm. Proteasome activity was determined under conditions in which substrate hydrolysis increased linearly with time and the change in fluorescent signal was proportional to the concentration of free AFC.
Determination of EC50 Values for Proteasome Inhibitors in MOLT-4 Cell Line
as §1, with “of” for “of the”, “proteasome in Molt-4 cells” for “HEP and of bovine α-chymotrypsin”, “cells” for “the enzyme”, “C.” for “C. (or room temperature for α-chymotrypsin)”

`CCCCCCCCCC(=O)N[C@@H](CNC(=O)Nc1ccccc1)C(=O)N[C@@H](CC(C)C)B(O)O` [E.5.21, Boronic acid, [(1R)-1-[[(2S)-3-(3-phenylureido)-2-(decanoylamino)-1-oxopropyl]amino]-3-methylbutyl]] was tested, and the IC50 [1] was < 10 nM and the EC50 [2] was < 200 nM.

`CC(C)C[C@H](NC(=O)[C@H](CCCNC(=N)N[N+](=O)[O-])NC(=O)CCCCCCC(=O)c1ccccc1)B(O)O` [E.2.57, Boronic acid, [(1R)-1-[[(2S)-5-[[imino(nitroamino)methyl]amino]-2-[(8-oxo-8-phenyloctanoyl)amino]-1-oxopentyl]amino]-3-methylbutyl]] was tested, and the IC50 [1] was < 10 nM and the EC50 [2] was 2000 to 10000 nM.

For `CCCCc1ccc(C(=O)N[C@@H](CNC(=O)c2ccc(C)cc2)C(=O)N[C@@H](CC(C)C)B(O)O)cc1` [E.5.5], the IC50 [1] was < 10 nM and the EC50 [2] was < 200 nM.

`CC(C)C[C@H](NC(=O)[C@H](CCCNC(=N)N[N+](=O)[O-])NC(=O)c1cnccn1)B(O)O` [E.1.2, Boronic acid, [(1R)-1-[[(2S)-5-[[imino(nitroamino)methyl]amino]-2-[(2-pyrazine-carbonyl)amino]-1-oxopentyl]amino]-3-methylbutyl]] was tested, and the IC50 [1] was < 10 nM and the EC50 [2] was 2000 to 10000 nM.

`CC(C)C[C@H](NC(=O)[C@H](CCCNC(=N)N[N+](=O)[O-])NC(=O)/C=C/c1ccccc1Br)B(O)O` [E.2.52, Boronic acid, [(1R)-1-[[(2S)-5-[[imino(nitroamino)methyl]amino]-2-[[trans-3-(2-bromophenyl)acryl]amino]-1-oxopentyl]amino]-3-methylbutyl]] was tested, and the IC50 [1] was < 10 nM and the EC50 [2] was 2000 to 10000 nM.

For `Cc1ccc(OCC(=O)N[C@@H](CCCNC(=N)N[N+](=O)[O-])C(=O)N[C@@H](CC(C)C)B(O)O)cc1C` [E.2.22, Boronic acid, [(1R)-1-[[(2S)-5-[[imino(nitroamino)methyl]amino]-2-[[2-(3,4-dimethylphenoxy)acetyl]amino]-1-oxopentyl]amino]-3-methylbutyl]], the IC50 [1] was < 10 nM and the EC50 [2] was 200 to 2000 nM.

With `CCCCCCCCCCC(=O)N[C@@H](CCCNC(=N)N[N+](=O)[O-])C(=O)N[C@@H](CC(C)C)B(O)O` [D.7.41, Boronic acid, [(1R)-1-[[(2S)-5-[[imino(nitroamino)methyl]amino]-2-[(undecanoyl)amino]-1-oxopentyl]amino]-3-methylbutyl]] the IC50 [1] was < 10 nM and the EC50 [2] was < 200 nM.

`Cc1cccc(/C=C/C(=O)N[C@@H](CCCNC(=N)N[N+](=O)[O-])C(=O)N[C@@H](CC(C)C)B2O[C@@H]3C[C@@H]4C[C@@H](C4(C)C)[C@]3(C)O2)c1` [D.3.57, 3-(3-Methylphenyl)acrylamide,N-[(1S)-1-[[[(1R)-1-[(3aS,4S,6S,7aR)-hexahydro-3a,5,5-trimethyl-4,6-methano-1,3,2-benzodioxaborol-2-yl]-3-methylbutyl]amino]carbonyl]-4-[[imino(nitroamino)methyl]amino]butyl]] was tested, and the IC50 [1] was < 10 nM and the EC50 [2] was < 200 nM.

`CCCCc1ccc(C(=O)N[C@@H](CNC(=O)c2cccs2)C(=O)N[C@@H](CC(C)C)B2O[C@@H]3C[C@@H]4C[C@@H](C4(C)C)[C@]3(C)O2)cc1` [D.24.8, 4-butylbenzamide, N-[(1S)-1-[[[(1R)-1-[(3aS,4S,6S,7aR)-hexahydro-3a,5,5-trimethyl-4,6-methano-1,3,2-benzodioxaborol-2-yl]-3-methylbulyl]amino]carbonyl]-2-[(thien-2-ylcarbonyl)amino]ethyl]-] was tested, and the IC50 [1] was < 10 nM and the EC50 [2] was < 200 nM.

For `CCCCCC(=O)NC[C@H](NC(=O)c1ccc(CCCC)cc1)C(=O)N[C@@H](CC(C)C)B1O[C@@H]2C[C@@H]3C[C@@H](C3(C)C)[C@]2(C)O1` [D.24.10, 4-butylbenzamide, N-[(1S)-1-[[[(1R)-1-[(3aS,4S,6S,7aR)-hexahydro-3a,5,5-trimethyl-4,6-methano-1,3,2-benzodioxaborol-2-yl]-3-methylbutyl]amino]carbonyl]-2-(hexanonylamino)ethyl]-], the IC50 [1] was < 10 nM and the EC50 [2] was < 200 nM.

In the case of `CC(C)C[C@H](NC(=O)[C@H](CCCNC(=N)N[N+](=O)[O-])NC(=O)/C=C/c1ccc2ccccc2c1)B1O[C@@H]2C[C@@H]3C[C@@H](C3(C)C)[C@]2(C)O1` [D.3.97, (E)-3-(Naphthalen-2-yl)acrylamide,N-[(1S)-1-[[[(1R)-1-[(3aS,4S,6S,7aR)-hexahydro-3a,5,5-trimethyl-4,6-methano-1,3,2-benzodioxaborol-2-yl]-3-methylbutyl]amino]carbonyl]-4-[[imino(nitroamino)methyl]amino]butyl]], the IC50 [1] is reported as < 10 nM and the EC50 [2] is reported as < 200 nM.

In the case of `CC(C)C[C@H](NC(=O)[C@H](CCCNC(=N)N[N+](=O)[O-])NC(=O)c1cccs1)B(O)O` [E.2.10, Boronic acid, [(1R)-1-[[(2S)-5-[[imino(nitroamino)methyl]amino]-2-[(2-thiophenecarbonyl)amino]-1-oxopentyl]amino]-3-methylbutyl]], the IC50 [1] is reported as < 10 nM and the EC50 [2] is reported as > 10000 nM.

`CCCCCCCCCCCNC(=O)N[C@H](C(=O)N[C@@H](CC(C)C)B(O)O)[C@@H](C)O` [E.1.24, Boronic acid, [(1R)-1-[[(2S,3R)-3-hydroxy-2-[(undecylaminocarbonyl)amino]-1-oxobutyl]amino]-3-methylbutyl]] was tested, and the IC50 [1] was < 10 nM and the EC50 [2] was < 200 nM.

For `CC(C)C[C@H](NC(=O)[C@H](CCCNC(=N)N[N+](=O)[O-])NC(=O)Cn1cnnn1)B1O[C@@H]2C[C@@H]3C[C@@H](C3(C)C)[C@]2(C)O1` [D.3.136], the IC50 [1] was < 10 nM and the EC50 [2] was > 10000 nM.

In the case of `CC(C)C[C@H](NC(=O)[C@H](CCCNC(=N)N[N+](=O)[O-])NC(=O)CCN1C(=O)c2ccccc2C1=O)B1O[C@@H]2C[C@@H]3C[C@@H](C3(C)C)[C@]2(C)O1` [D.1.3, 3-(1,3-Dioxo-1,3-dihydro-isoindol-2-yl)-propanamide,N-[(1S)-1-[[[(1R)-1-[(3aS,4S,6S,7aR)-hexahydro-3a,5,5-trimethyl-4,6-methano-1,3,2-benzodioxaborol-2-yl]-3-methylbutyl]amino]carbonyl]-4-[[imino(nitroamino)methyl]amino]butyl]], the IC50 [1] is reported as < 10 nM and the EC50 [2] is reported as 200 to 2000 nM.

With `CC(C)C[C@H](NC(=O)[C@H](CCCN/C(N)=N/[N+](=O)[O-])NC(=O)C(CCCCCCCCN1C(=O)c2ccccc2C1=O)C1CCCC1)B(O)O` (stereo partly drawn) [E.1.21] the IC50 [1] was < 10 nM and the EC50 [2] was < 200 nM.

In the case of `CC(C)C[C@H](NC(=O)[C@H](CCCNC(=N)N[N+](=O)[O-])NC(=O)CC1CC2CCC1C2)B(O)O` (stereo partly drawn) [E.2.41, Boronic acid, [(1R)-1-[[(2S)-5-[[imino(nitroamino)methyl]amino]-2-[[2-(bicyclo[2.2.1]hept-2-yl)acetyl]amino]-1-oxopentyl]amino]-3-methylbutyl]], the IC50 [1] is reported as < 10 nM and the EC50 [2] is reported as > 10000 nM.

With `CC(C)C[C@H](NC(=O)[C@H](CCCNC(=N)N[N+](=O)[O-])NC(=O)CCCCc1ccccc1)B1O[C@@H]2C[C@@H]3C[C@@H](C3(C)C)[C@]2(C)O1` [D.3.132, 5-Phenylpentanamide,N-[(1S)-1-[[[(1R)-1-[(3aS,4S,6S,7aR)-hexahydro-3a,5,5-trimethyl-4,6-methano-1,3,2-benzodioxaborol-2-yl]-3-methylbutyl]amino]carbonyl]-4-[[imino(nitroamino)methyl]amino]butyl]] the IC50 [1] was < 10 nM and the EC50 [2] was < 200 nM.
